Organism: Rattus norvegicus
Experiment: Open TG-GATES - Regimen: Single
Assay type: toxicity, organism-based, Sprague-Dawley
Design: regimen Single, gender Male, age 6 weeks
Conditions: in vivo, po, 1000 mg/kg, route gavage, dose level High; for APTT / Bas / Eos / Fbg / Hb / Ht / Lym / MCH / MCHC / MCV / Mono / Neu / PT / Plat / RBC / Ret / WBC: tissue Blood; for KIDNEY_L / KIDNEY_R / KIDNEY_TOTAL: tissue Kidney; for LIVER: tissue Liver; for A/G / ALP / ALT / AST / BUN / CRE / Ca / Cl / DBIL / GLC / IP / K / LDH / Na / PL / RALB / TBIL / TC / TG / TP / gamma-GTP: tissue Plasma

CN(C)[C@@H]1C(O)=C(C(N)=O)C(=O)[C@@]2(O)C(O)=C3C(=O)c4c(O)cccc4[C@@](C)(O)[C@H]3C[C@@H]12 [TETRACYCLINE]
TERMINAL_BW (3 h): 185.9 g | APTT (3 h): 15.7 s | Bas (3 h): 0% | Eos (3 h): 0.4% | Fbg (3 h): 217.2 mg/dL | Hb (3 h): 13.5 g/dL | Ht (3 h): 40.5% | Lym (3 h): 79.8% | MCH (3 h): 22.1 pg | MCHC (3 h): 33.3% | MCV (3 h): 66.4 fL | Mono (3 h): 6.4% | Neu (3 h): 13.2% | PT (3 h): 11.9 s | Plat (3 h): 103.4 x10_4/uL | RBC (3 h): 610 x10_4/ul | Ret (3 h): 9.5% | WBC (3 h): 108.1 x10_2/uL | KIDNEY_L (3 h): 0.8 g | KIDNEY_R (3 h): 0.8 g | KIDNEY_TOTAL (3 h): 1.7 g | LIVER (3 h): 8.5 g | A/G (3 h): 2.2 | ALP (3 h): 770.2 IU/L | ALT (3 h): 44 IU/L | AST (3 h): 72.8 IU/L | BUN (3 h): 15.6 mg/dL | CRE (3 h): 0.5 mg/dL | Ca (3 h): 11.1 mg/dL | Cl (3 h): 105.8 meq/L | DBIL (3 h): 0.03 mg/dL | GLC (3 h): 184.8 mg/dL | IP (3 h): 12 mg/dL | K (3 h): 5 meq/L | LDH (3 h): 142.4 IU/L | Na (3 h): 138 meq/L | PL (3 h): 132 mg/dL | RALB (3 h): 3.8 g/dL | TBIL (3 h): 0.6 mg/dL | TC (3 h): 77.8 mg/dL | TG (3 h): 36.8 mg/dL | TP (3 h): 5.6 g/dL | gamma-GTP (3 h): 1.8 IU/L | TERMINAL_BW (6 h): 184.3 g | APTT (6 h): 17.2 s | Bas (6 h): 0% | Eos (6 h): 0.4% | Fbg (6 h): 193 mg/dL | Hb (6 h): 13.4 g/dL | Ht (6 h): 40.4% | Lym (6 h): 79% | MCH (6 h): 21.9 pg | MCHC (6 h): 33.1% | MCV (6 h): 66.1 fL | Mono (6 h): 7.2% | Neu (6 h): 13.4% | PT (6 h): 12.2 s | Plat (6 h): 101.1 x10_4/uL | RBC (6 h): 612.4 x10_4/ul | Ret (6 h): 10.1% | WBC (6 h): 100.4 x10_2/uL | KIDNEY_L (6 h): 0.9 g | KIDNEY_R (6 h): 0.9 g | KIDNEY_TOTAL (6 h): 1.8 g | LIVER (6 h): 8.1 g | A/G (6 h): 1.8 | ALP (6 h): 872.8 IU/L | ALT (6 h): 39 IU/L | AST (6 h): 74.2 IU/L | BUN (6 h): 13.4 mg/dL | CRE (6 h): 0.4 mg/dL | Ca (6 h): 10.9 mg/dL | Cl (6 h): 106.4 meq/L | DBIL (6 h): 0.018 mg/dL | GLC (6 h): 186.6 mg/dL | IP (6 h): 11.9 mg/dL | K (6 h): 5.4 meq/L | LDH (6 h): 128.4 IU/L | Na (6 h): 137.4 meq/L | PL (6 h): 127 mg/dL | RALB (6 h): 3.4 g/dL | TBIL (6 h): 0.4 mg/dL | TC (6 h): 71.2 mg/dL | TG (6 h): 36.2 mg/dL | TP (6 h): 5.2 g/dL | gamma-GTP (6 h): 1.6 IU/L | TERMINAL_BW (9 h): 180.6 g | APTT (9 h): 16.8 s | Bas (9 h): 0% | Eos (9 h): 0.2% | Fbg (9 h): 199.2 mg/dL | Hb (9 h): 13.1 g/dL | Ht (9 h): 40% | Lym (9 h): 83.4% | MCH (9 h): 21.5 pg | MCHC (9 h): 32.8% | MCV (9 h): 65.4 fL | Mono (9 h): 5.8% | Neu (9 h): 11% | PT (9 h): 12.3 s | Plat (9 h): 104 x10_4/uL | RBC (9 h): 610.6 x10_4/ul | Ret (9 h): 8.9% | WBC (9 h): 66.5 x10_2/uL | KIDNEY_L (9 h): 0.8 g | KIDNEY_R (9 h): 0.8 g | KIDNEY_TOTAL (9 h): 1.6 g | LIVER (9 h): 7.7 g | A/G (9 h): 2.2 | ALP (9 h): 769.6 IU/L | ALT (9 h): 33.8 IU/L | AST (9 h): 66.4 IU/L | BUN (9 h): 12.8 mg/dL | CRE (9 h): 0.4 mg/dL | Ca (9 h): 11 mg/dL | Cl (9 h): 107.4 meq/L | DBIL (9 h): 0.044 mg/dL | GLC (9 h): 192.4 mg/dL | IP (9 h): 11.5 mg/dL | K (9 h): 4.9 meq/L | LDH (9 h): 136.2 IU/L | Na (9 h): 139.8 meq/L | PL (9 h): 128.8 mg/dL | RALB (9 h): 3.7 g/dL | TBIL (9 h): 0.4 mg/dL | TC (9 h): 69.4 mg/dL | TG (9 h): 25.6 mg/dL | TP (9 h): 5.4 g/dL | gamma-GTP (9 h): 1.2 IU/L | TERMINAL_BW (24 h): 200.2 g | APTT (24 h): 16.8 s | Bas (24 h): 0% | Eos (24 h): 0.6% | Fbg (24 h): 208.8 mg/dL | Hb (24 h): 13.4 g/dL | Ht (24 h): 40.5% | Lym (24 h): 84.2% | MCH (24 h): 21.5 pg | MCHC (24 h): 33% | MCV (24 h): 65.1 fL | Mono (24 h): 7% | Neu (24 h): 8.2% | PT (24 h): 11.9 s | Plat (24 h): 105 x10_4/uL | RBC (24 h): 621.8 x10_4/ul | Ret (24 h): 8.9% | WBC (24 h): 88.7 x10_2/uL | KIDNEY_L (24 h): 0.9 g | KIDNEY_R (24 h): 0.9 g | KIDNEY_TOTAL (24 h): 1.9 g | LIVER (24 h): 8.9 g | A/G (24 h): 2.2 | ALP (24 h): 948 IU/L | ALT (24 h): 44 IU/L | AST (24 h): 77.2 IU/L | BUN (24 h): 17.8 mg/dL | CRE (24 h): 0.5 mg/dL | Ca (24 h): 11.2 mg/dL | Cl (24 h): 105.6 meq/L | DBIL (24 h): 0.006 mg/dL | GLC (24 h): 180.4 mg/dL | IP (24 h): 9.8 mg/dL | K (24 h): 5 meq/L | LDH (24 h): 147 IU/L | Na (24 h): 141.6 meq/L | PL (24 h): 142.6 mg/dL | RALB (24 h): 3.8 g/dL | TBIL (24 h): 0.3 mg/dL | TC (24 h): 74 mg/dL | TG (24 h): 50.2 mg/dL | TP (24 h): 5.6 g/dL | gamma-GTP (24 h): 1 IU/L
